Here are results for 20 compounds from ChEMBL document CHEMBL4043270, “Design, synthesis and biological evaluation of 2-phenylquinoline-4-carboxamide derivatives as a new class of tubulin polymerization inhibitors” (Bioorg Med Chem, 2017).

One experiment relates to MDA-MB-468. In words: Antiproliferative activity against human MDA-MB-468 cells by SRB assay. In kind it is functional, cell-based.
In a further experiment the test system is HeLa. In words: Antiproliferative activity against human HeLa cells by SRB assay. In kind it is functional, cell-based. On the technique in general: Sulforhodamine B stains cellular protein and so reports cell mass.
The next experiment has as its system SK-OV-3. In words: Antiproliferative activity against human SKOV3 cells by SRB assay. In kind it is functional, cell-based.
In experiment [1] the test system is HCT-116. In words: Antiproliferative activity against human HCT116 cells by SRB assay. In kind it is functional, cell-based.
A further experiment concerns A549. Description: Antiproliferative activity against human A549 cells by SRB assay. In kind it is functional, cell-based.
The subject of the next experiment is MRC5. In words: Antiproliferative activity against human MRC5 cells by SRB assay. In kind it is cell-based.
Experiment [2] relates to HCT-116. In words: Induction of microtubule disruption in human HCT116 cells assessed as change in microtubule architecture at 0.5 uM after 24 hrs by DAPI staining based confocal microscopic method. In kind it is functional, cell-based.
The species named for a further experiment is Homo sapiens. In words: Displacement of colchicine from tubulin (unknown origin) at 0.1 to 10 uM after 1 hr by fluorescence assay.
The species entered for a further experiment is Bos taurus. In words: Inhibition of bovine tubulin polymerization at 125 to 725 nM measured every 60 secs intervals for 60 mins in presence of GTP by fluorescence assay.
Experiment [3] relates to HCT-116. Description: Induction of Cyclin B1 accumulation in human HCT116 cells at 0.06 to 1 uM after 24 hrs by Western blot method. In kind it is functional, cell-based.
Experiment [4] deals with HCT-116. Description: Cell cycle arrest in human HCT116 cells assessed as accumulation at G1 phase at 125 nM after 48 hrs by […]propidium iodide staining based flow cytometry (reference value: 89.45%). In kind it is functional.
Experiment [5] has as its system HCT-116. In words: Cell cycle arrest in human HCT116 cells assessed as accumulation at S phase at 125 nM after 48 hrs by […]propidium iodide staining based flow cytometry (reference value: 8.93%). In kind it is functional. In general terms: Flow cytometry measures light scatter and fluorescence of single cells or particles in a stream.
Experiment [6] deals with HCT-116. In words: Cell cycle arrest in human HCT116 cells assessed as accumulation at G2/M phase at 125 nM after 48 hrs by […]propidium iodide staining based flow cytometry (reference value: 1.62%). In kind it is functional.
Experiment [7] deals with HCT-116. In words: Cell cycle arrest in human HCT116 cells assessed as accumulation at G1 phase at 500 nM after 48 hrs by […]propidium iodide staining based flow cytometry (reference value: 89.45%). In kind it is functional.
In experiment [8] the test system is HCT-116. Description: Cell cycle arrest in human HCT116 cells assessed as accumulation at S phase at 500 nM after 48 hrs by […]propidium iodide staining based flow cytometry (reference value: 8.93%). In kind it is functional.
Experiment [9] deals with HCT-116. In words: Cell cycle arrest in human HCT116 cells assessed as accumulation at G2/M phase at 500 nM after 48 hrs by […]propidium iodide staining based flow cytometry (reference value: 1.62%). In kind it is functional.
Experiment [10] relates to HCT-116. Description: Induction of apoptosis in human HCT116 cells assessed as viable cells at 0.5 uM after 24 hrs by annexin-V FITC/propidium iodide staining based flow cytometry (reference value: 97.93%). In kind it is functional. To be noted: HCT-116, 24 h, read-out: Activity.
The test system of experiment [11] is HCT-116. In words: Induction of apoptosis in human HCT116 cells assessed as early apoptotic cells at 0.5 uM after 24 hrs by annexin-V FITC/propidium iodide staining based flow cytometry (reference value: 1.08%). In kind it is functional.
Experiment [12] has as its system HCT-116. In words: Induction of apoptosis in human HCT116 cells assessed as late apoptotic cells at 0.5 uM after 24 hrs by annexin-V FITC/propidium iodide staining based flow cytometry (reference value: 0.96%). In kind it is functional.
The test system of experiment [13] is HCT-116. In words: Induction of apoptosis in human HCT116 cells assessed as necrotic cells at 0.5 uM after 24 hrs by annexin-V FITC/propidium iodide staining based flow cytometry (reference value: 0.03%). In kind it is functional.

Active and inactive are the calls of the source. The calls are words filed in the database; no cut-off is given here. Some results are limits rather than exact numbers.

Usually IC50 stands for the point on the concentration scale where inhibition reaches its midpoint.

With `O=C(NC(Cc1ccccc1)C(=O)OCc1ccccc1)c1cc(-c2ccccc2)nc2ccccc12` (centres undefined), the IC50 with MDA-MB-468 was over 50 µM; in the experiment with HeLa it was over 50 µM; in the experiment on SK-OV-3 it was over 50 µM; in the experiment on HCT-116 [1] it was 36.1 µM; in the experiment with A549, over 50 µM; with MRC5, over 50 µM.

Turning to `Cc1cc(NC(=O)c2cc(-c3ccccc3)nc3ccccc23)no1`, the IC50 is 46.2 µM with MDA-MB-468; over 50 µM in the experiment with HeLa; 36.6 µM in the experiment on SK-OV-3; 25.8 µM in the experiment on HCT-116 [1]; 37.9 µM in the experiment on A549; over 50 µM in the experiment with MRC5.

On to `COc1ccc(NC(=O)c2cc(-c3ccc(C)cc3)nc3ccc(C)cc23)c(C)c1`, for which the concentration for half-maximal inhibition (IC50) in the experiment on MDA-MB-468 was 46.1 µM; in the experiment with HeLa it was 20.4 µM; in the experiment with SK-OV-3 it was 12.3 µM; in the experiment with HCT-116 [1], 11.9 µM; in the experiment on A549, 30.1 µM; with MRC5 it was over 50 µM.

For the compound `COc1ccc(NC(=O)c2cc(-c3ccc(C(F)(F)F)cc3)nc3ccccc23)c(C)c1`, the IC50 was over 50 µM in the experiment with MDA-MB-468; over 50 µM with HeLa; over 50 µM with SK-OV-3; 47.3 µM with HCT-116 [1]; over 50 µM in the experiment on A549; over 50 µM in the experiment with MRC5.

Turning to `COC(=O)C1=C(NC(=O)c2cc(-c3ccccc3)nc3ccccc23)NC=CN1`, the IC50 is over 50 µM in the experiment on MDA-MB-468; 36.8 µM with HeLa; 38.9 µM in the experiment with SK-OV-3; 29.5 µM with HCT-116 [1]; over 50 µM in the experiment with A549; over 50 µM in the experiment with MRC5.

Take `COc1ccc(NC(=O)c2cc(-c3ccc4c(c3)OCO4)nc3ccccc23)cc1`: the IC50 with MDA-MB-468 is over 50 µM; with HeLa it was over 50 µM; in the experiment with SK-OV-3 it was 43.4 µM; in the experiment with HCT-116 [1], over 50 µM; in the experiment with A549, 46.3 µM; with MRC5 it was over 50 µM.

On to `COc1ccc(NC(=O)c2cc(-c3ccc(C)cc3)nc3ccccc23)c(C)c1`, for which the IC50 came to 17.4 µM in the experiment on MDA-MB-468; 9.5 µM in the experiment on HeLa; 4.2 µM with SK-OV-3; 1.7 µM in the experiment on HCT-116 [1]; 11.6 µM in the experiment on A549; 48.1 µM in the experiment with MRC5.

`COc1ccc(NC(=O)c2c3c(nc4ccc(Cl)cc24)-c2ccccc2CC3)cc1`: the IC50 was over 50 µM with MDA-MB-468; over 50 µM with HeLa; 37.6 µM in the experiment with SK-OV-3; 39.5 µM in the experiment with HCT-116 [1]; over 50 µM in the experiment with A549; over 50 µM in the experiment on MRC5.

Take `COc1ccc(NC(=O)c2cc(-c3ccccc3)nc3ccc(F)cc23)cc1`: the IC50 was over 50 µM in the experiment on MDA-MB-468; over 50 µM in the experiment on HeLa; 29.7 µM with SK-OV-3; 34.2 µM in the experiment on HCT-116 [1]; over 50 µM in the experiment with A549; over 50 µM in the experiment on MRC5.

For the compound `COc1cc(NC(=O)c2cc(-c3ccc(C)cc3)nc3ccccc23)cc(OC)c1OC`, the result with HCT-116 [2] and with HCT-116 [3] was Active. The inhibition entry in the experiment listed under Homo sapiens and in the experiment listed under Bos taurus was “Active” in each case. Further, the IC50 with MDA-MB-468 was 10.8 µM; with HeLa it was 1.6 µM; in the experiment with SK-OV-3 it was 0.5 µM; in the experiment on HCT-116 [1] it was 0.2 µM; with A549, 5.7 µM; in the experiment with MRC5, 31.9 µM. Also, the Activity in the experiment on HCT-116 [4] is on record as 46.62%; in the experiment with HCT-116 [5] it was 5.21%; in the experiment with HCT-116 [6], 48.17%; in the experiment with HCT-116 [7] it was 4.93%; in the experiment with HCT-116 [8], 7.87%; with HCT-116 [9], 87.2%. Also, the Activity in the experiment on HCT-116 [11] is on record as 45.26%; in the experiment on HCT-116 [12], 39.47%; in the experiment on HCT-116 [13], 0.04%. In addition, the viability at 0.5 µM in the experiment with HCT-116 [10] is 15.2%.

As to `COc1ccc(NC(=O)c2cc(-c3ccccc3)nc3ccccc23)c(C)c1`, the IC50 in the experiment on MDA-MB-468 was 20.1 µM; in the experiment with HeLa, 16.4 µM; with SK-OV-3 it was 8.4 µM; in the experiment with HCT-116 [1] it was 7.8 µM; with A549, 23.7 µM; with MRC5, over 50 µM.

In the case of `COc1ccc(NC(=O)c2cc(-c3cccc(C)c3)nc3ccccc23)cc1`, the IC50 was over 50 µM in the experiment with MDA-MB-468; 30.2 µM with HeLa; 12.4 µM in the experiment with SK-OV-3; 9.4 µM in the experiment with HCT-116 [1]; 30.5 µM with A549; over 50 µM in the experiment on MRC5.

Take `COC(=O)c1sccc1NC(=O)c1cc(-c2ccccc2)nc2ccccc12`: the IC50 in the experiment on MDA-MB-468 was 36.8 µM; with HeLa, 34.5 µM; in the experiment with SK-OV-3, 20.3 µM; in the experiment on HCT-116 [1], 22.6 µM; with A549, 48.7 µM; in the experiment with MRC5, 46.3 µM.

In the case of `CC[C@]1(O)C[C@@H]2CN(CCc3c([nH]c4ccccc34)[C@@](C(=O)OC)(c3cc4c(cc3OC)N(C)[C@H]3[C@@](O)(C(=O)OC)[C@H](OC(C)=O)[C@]5(CC)C=CCN6CC[C@]43[C@@H]65)C2)C1`, in the experiment filed under Homo sapiens, the inhibition entry was “inactive”.

In the case of `COc1cc(OC)c(NC(=O)c2cc(-c3ccccc3)nc3ccccc23)cc1Cl`, the IC50 with MDA-MB-468 was 42.8 µM; in the experiment with HeLa, 42.6 µM; with SK-OV-3 it was 36.3 µM; in the experiment on HCT-116 [1], over 50 µM; in the experiment with A549, over 50 µM; in the experiment on MRC5 it was over 50 µM.

Turning to `COc1cc(NC(=O)c2cc(-c3ccccc3)nc3ccccc23)cc(OC)c1OC`, the half-maximal inhibitory concentration (IC50) stood at 18.9 µM in the experiment on MDA-MB-468; 12.7 µM in the experiment with HeLa; 5.4 µM with SK-OV-3; 2.7 µM in the experiment on HCT-116 [1]; 17.9 µM with A549; 38.8 µM with MRC5.

Turning to `COc1ccc(NC(=O)c2cc(-c3ccccc3)nc3ccccc23)cc1`, the IC50 in the experiment on MDA-MB-468 amounted to 34.7 µM; in the experiment with HeLa it was 32.5 µM; in the experiment on SK-OV-3, 12.8 µM; with HCT-116 [1], 4.9 µM; in the experiment with A549 it was 20.5 µM; in the experiment on MRC5, 40.5 µM.

Turning to `COc1ccc(NC(=O)c2c3c(nc4ccc(Cl)cc24)-c2ccccc2CC3)c(C)c1`, the concentration for half-maximal inhibition (IC50) was over 50 µM in the experiment with MDA-MB-468; over 50 µM with HeLa; 32.5 µM in the experiment on SK-OV-3; over 50 µM in the experiment on HCT-116 [1]; over 50 µM in the experiment on A549; over 50 µM in the experiment with MRC5.

Regarding `COc1ccc(NC(=O)c2cc(-c3ccccc3)nc3ccc(Cl)cc23)cc1`, the IC50 is over 50 µM in the experiment on MDA-MB-468; 40.2 µM with HeLa; 20.3 µM in the experiment with SK-OV-3; 24.8 µM with HCT-116 [1]; over 50 µM with A549; over 50 µM in the experiment on MRC5.

`COc1cccc(NC(=O)c2cc(-c3ccccc3)nc3ccccc23)c1`: the IC50 in the experiment with MDA-MB-468 came to 34.7 µM; with HeLa, 40.5 µM; with SK-OV-3, 17.4 µM; in the experiment on HCT-116 [1], 12.9 µM; with A549, 32.5 µM; with MRC5, 43.8 µM.
